# Experimental data from patent US20240316053A1, “USE OF FOLATE DERIVATIVE IN PREPARATION OF DRUG FOR TREATING CONTACT LENS DISCOMFORT AND DRY EYE” (LIANYUNGANG JINKANG HEXIN PHARMACEUTICAL CO., LTD., priority 2021, published 2024).
# Assays:
# [1] = tested on: MMP-2; test: Semi-quantitative RT-PCR in ipsilateral trigeminal ganglion of mice with chronic dry eye; type: in vivo; conditions: Example 3, 0.5% eye drop, FIG. 7
# Method: (§1) The experiment was divided into 3 groups. 20 mice with chronic dry eye in Example 2 were divided into a 5-methylterahydrofolic acid group (group A, n=10), and an arginine group (group B, n=10). 4 normal mice were taken as the control group. Each eye of the mice in group A was dripped with 5 μL of 5-methylterahydrofolic acid eye drop every day, each eye of the mice in group B was dripped with 5 μL of 0.5% arginine eye drop every day, and each eye of the mice in group C was dripped with 5 μL of a phosphate buffer every day. Tears were collected on the 3rd, 5th, 7th and 10th day after treatment, and the secretion of tears was detected. On the 10th day after treatment, the cornea of the mice in each group were stained with fluorescein.
# (§2) The ipsilateral trigeminal ganglion and trigeminal trunk of the eye of the mice were dissected quickly on ice, immediately frozen with liquid nitrogen, and stored at −80° C. RNA was extracted from ipsilateral trigeminal ganglion and trigeminal trunk by using NucleoSpin RNA purification II kit (NucleoSpin RNAS, Germany), and PCR amplification was carried out with mouse-specific cDNAs for matrix metalloproteinases MMP-9, MMP-2, and TNF-α. For each primer, the reaction was stopped after 24, 28, 32, 36, or 40 cycles, so as to ensure that the PCR products were within the linear range of the amplification curve, and semi-quantitative RT-PCR for the expression of related genes was realized.
# [2] = tested on: MMP-9; test: as above; type: in vivo; conditions: Example 3, 0.5% eye drop, FIG. 7
# Method: as §1, §2
# [3] = tested on: TNF-α; test: as above; type: in vivo; conditions: Example 3, 0.5% eye drop, FIG. 7
# Method: as §1, §2
# [4] = tested on: IL-17; test: IL-17 content in tears of contact lens wearers (ELISA); type: in vivo, human; conditions: symptomatic wearers, oral 5 mg/tablet daily, tears collected after 6 hrs of lens wear, FIG. 1
# Method: (§3) The symptomatic contact lens wearers were divided into 2 groups, that is, group A (n=4) and group B (n=4). The asymptomatic contact lens wearers were assigned to group C The participants in each group didn't wear contact lenses for 24 hours, and then the tears were collected. Dietary supplements containing 5 mg calcium salt of 6S-5-methylterahydrofolic acid/tablet were orally taken by the participants in group A every day. After 3 days, the participants in each group began to wear contact lenses, and the tears were collected after 6 hrs. The contents of IL-2, IL-6, IL-17, and TNF-α were detected (ELISA method). The participants in each group were followed up to determine the degree of discomfort of wearing contact lenses.
# [5] = tested on: mice with chronic dry eye; test: Corneal fluorescein staining in mice with chronic dry eye; type: in vivo; conditions: 10th day after treatment
# From the text: It can be seen that a suitable animal model of dry eye is very important, and it is impossible to show the true state of dry eye or contact lens discomfort only by destroying the lacrimal gland or modeling with hypertonic saline. The mouse model of dry eye constructed under specific environmental conditions is closest to the real situation. 120 female BALB/c mice aged 8-12 weeks were placed in an isolated and sealed cage with an opening on the top. Air dried through anhydrous CaSO4 was pumped into the cage by an air pump, where the air humidity RH=19.5%±5%, the flow rate was 15 L/min, and the temperature was 21-23° C. The mice in the dry and windy environment were taken out on the 5th, 15th and 30th day respectively. The production of tears was measured by phenol red thread test, and compared with that of the mice raised in standard cages in normal environment. Meanwhile, the cornea of the mice were stained with fluorescein, and the punctate staining was recorded in the cornea.
# as §1
# The experiment was divided into 4 groups. […] Tears were collected on the 3rd, 5th, 7th and 10th day after treatment, and the secretion of tears was detected. […]
# [6] = tested on: IL-17; test: Inflammatory factors on ocular surface of mice with chronic dry eye (ELISA); type: in vivo; conditions: Example 3, 0.5% eye drop, cornea, conjunctiva and draining lymph node, FIG. 6
# Method: as §1
# After treatment, the animals were euthanized, and the eye tissues such as cornea, lacrimal gland and meibomian gland were taken out and washed in PBS. The cornea, conjunctiva and draining lymph node were collected and stored in cold sterile PBS at −80° C. The samples were homogenized and centrifuged on ice. The levels of […], IL-17 and IL-6 in the supernatant were determined by ELISA kit (Raybiotech).
# [7] = tested on: symptomatic contact lens wearers; test: Follow-up of degree of discomfort of wearing contact lenses; type: in vivo, human; conditions: group A (n=4), oral 5 mg calcium salt of 6S-5-methylterahydrofolic acid/tablet every day, contact lenses worn after 3 days
# Method: A total of 10 adults suffering from contact lens discomfort were included in the study. Among them, 8 felt uncomfortable when wearing contact lenses, and 2 were asymptomatic contact lens wearers. The contact lenses worn by the participants were all silicone hydrogel-based contact lenses. All the participants were in good health. The symptoms and severity of eye discomfort were evaluated by the ocular surface disease index (OSDI), and whether there were symptoms such as inflammation in the eyes was checked by an optometrist.
# as §3
# [8] = Stability in water; type: physicochemical
# [9] = Example 3, 0.5% eye drop, 5 μL per eye every day, FIG. 5
Compound,MMP-2 gene expression in trigeminal nerve [1],MMP-9 gene expression in trigeminal nerve [2],TNF-α gene expression in trigeminal nerve [3],level of IL-17 in tears [4],"corneal injury (fluorescein staining) [5, 9]",IL-17 inflammatory factor on ocular surface [6],participants saying that the contact lens discomfort almost disappears [7] [participants],participants thinking that the effect is not significant [7] [case],stability in water [8],"corneal injury (fluorescein staining) ([5]; Example 4, eye drops, FIG. 9)"
CN1c2c(nc(N)[nH]c2=O)NCC1CNc1ccc(C(=O)N[C@@H](CCC(=O)O)C(=O)O)cc1 (some centres unmarked) [5-methylterahydrofolic acid],can significantly inhibit the MMP-2 gene expression,not on MMP-9 significantly,a certain inhibitory effect on TNF-α,can reduce the level of IL-17 in tears,can improve the corneal injury with a significant difference from the baseline state,can significantly reduce IL-17 inflammatory factor,3,1,–,–
"N=C(N)NCCC[C@H](N)C(=O)O [arginine, reference compound]",–,–,–,–,can not significantly improve the ocular surface damage,–,–,–,–,–
"CN1c2c(nc(N)[nH]c2=O)NC[C@@H]1CNc1ccc(C(=O)N[C@@H](CCC(=O)O)C(=O)O)cc1.N=C(N)NCCC[C@H](N)C(=O)O [arginine 5-methylterahydrofolate, arginine 6S-5-methylterahydrofolate]",–,–,–,–,–,–,–,–,very poor,"can improve the corneal injury, with a significant difference from the baseline state"
